Laboratory results from patent US9642839B2, “Substance having tyrosine kinase inhibitory activity and preparation method and use thereof” (Institute of Radiation Medicine, China Academy of Military …, priority 2013, dated 2017).

Columns and labels:
A549 cells = assay: In vitro antitumor activity, MTS cell proliferation; type: cell-based, human; details: Homo sapiens, A549, lung cancer, 72 hours
Protocol: (§1) Method: 14 cell lines (MKN-45 cells, MHCC97-L cells, MHCC97-H cells, HLE cells, HepG2 cells, 7721 cells, L02 cells, A375 cells, H460 cells, A549 cells, SK-N-SH cells, MCF-7 cells, K562 cells, and Ba/F3-Tpr-Met cells (pre-B cells which are malignantly transformed by the c-Met constitutive active mutant Tpr-Met) were seeded into 96-well plate at 1×10^4 cells/well, and each well was added with 150 μl DMEM medium (purchased from Invitrogen) containing 10% fetal bovine serum (purchased from Hyclone). When cell adherent was observed, different concentrations of 2-indolone derivatives (concentrations at 0.1-10 μM) were added, in addition to the negative control (vehicle control group) and blank control (medium group). After culture at 37° C., 5% CO2 for 72 hours, MTS reagent (Promega Corporation) were added for further culture for 2-4 h.

MHCC97-H cells = assay: as above; type: cell-based, human; details: Homo sapiens, MHCC97H, hepatocellular cancer, 72 hours
Protocol: as §1

MHCC-97H cells = assay: Liver orthotopic tumor model; type: in vivo, nude mice; details: for Tumor inhibition rate / Weight of tumor: 6 administrations; for Average weight (X ± S), End: animal weight at end, in g (unit assumed)
From the text: The medium was changed once every 1-2 days. […] The subcultured tumor cells were digested under a sterile condition and resuspended with sodium chloride injection, and subcutaneously inoculated at the right flank of nude mice. When the subcutaneous tumors in the nude mice grew to a volume about 1,500-2,000 mm^3, the tumor mass was removed under a sterile condition, and cut into pieces in a size about 1.0×1.0 mm for future use. Then the nude mice to be inoculated were anesthetized and fixed on the operating table. The abdominal skin was disinfected, and an incision about 1 cm was made in the left upper abdomen to expose the liver, with the surgical site covered. The prepared tumor piece was placed into a dedicated inoculation trocar, and was implanted into the liver by using the trocar. The bleeding site of the wound was treated with sterilized gauze or sterilized cotton swab to stop the bleeding. Then liver which underwent surgery was placed back into the abdominal cavity of mice. The abdominal muscles and skin were sutured with 4/0 gauge surgical needle sequentially. After normal feeding of the mice for 2 weeks, size of liver tumor was observed under B-ultrasound.
Method: Animal models were randomized into vehicle control group, intraperitoneal low dose group (18 mg/kg), intraperitoneal high dose group (36 mg/kg), and gavage group (36 mg/kg), with 9 mice each group. The mice received treatment once every 24 hours. Intraperitoneal administration was done by intraperitoneal injection. The vehicle control group received DMSO injected intraperitoneally. Six times of administration were given. After the last administration, animals were kept for another 3 weeks, then sacrificed by cervical dislocation, and dissected to obtain liver. Visible tumor was dissected and weighed.

HepG2 cells = assay: In vitro antitumor activity, MTS cell proliferation; type: cell-based; details: Homo sapiens, HepG2, hepatocellular cancer, 72 hours
Protocol: as §1

SK-N-SH cells = assay: as above; type: cell-based; details: Homo sapiens, neuroblastoma, 72 hours
Protocol: as §1

H460 cells = assay: as above; type: cell-based; details: Homo sapiens, NCI-H460, H460, lung cancer, 72 hours
Protocol: as §1

A375 cells = assay: as above; type: cell-based; details: Homo sapiens, A-375, A375, skin cancer, 72 hours
Protocol: as §1

K562 cells = assay: as above; type: cell-based; details: Homo sapiens, K562, leukemia, 72 hours
Protocol: as §1

HLE cells = assay: as above; type: cell-based; details: Homo sapiens, hepatocellular cancer, 72 hours
Protocol: as §1

MKN-45 cells = assay: as above; type: cell-based; details: Homo sapiens, MKN-45, gastric cancer, 72 hours
Protocol: as §1

Ba/F3-Tpr-Met cells = assay: as above; type: cell-based; details: pre-B cell, 72 hours
Protocol: as §1

MCF-7 cells = assay: as above; type: cell-based; details: Homo sapiens, MCF7, MCF-7, breast cancer, 72 hours
Protocol: as §1

MHCC97-L cells = assay: as above; type: cell-based; details: MHCC97L, hepatocellular cancer, 72 hours
Protocol: as §1

[1] = tested on: neuroblastoma SK-N-SH cells; assay: Subcutaneous SK-N-SH tumor-bearing nude mouse model; type: in vivo, nu/nu female mice; details: SK-N-SH s.c. nude mice, once every 24 h, 6 administrations
From the text: Model establishment: nu/nu female mice of 6-8 weeks old were fed under an SPF condition in an animal facility for one week, and then each of them was inoculated with 5×10^6 neuroblastoma SK-N-SH cells (purchased from ATCC) subcutaneously in left flank. Tumor volume was monitored every day after inoculation. Once the size reached ˜100 mm^3, mice were divided into groups.
Each group included 10 animals.

TrkB [2] = molecular target: T1, TrkB (Homo sapiens, UniProt Q16620); assay: Western blot, BDNF-induced TrkB phosphorylation and signaling pathway in SK-N-SH cells; type: cell-based; details: 0.05-1.0 μM, 200 ng/ml BDNF
T1 sequence (Q16620 32-822, species assumed): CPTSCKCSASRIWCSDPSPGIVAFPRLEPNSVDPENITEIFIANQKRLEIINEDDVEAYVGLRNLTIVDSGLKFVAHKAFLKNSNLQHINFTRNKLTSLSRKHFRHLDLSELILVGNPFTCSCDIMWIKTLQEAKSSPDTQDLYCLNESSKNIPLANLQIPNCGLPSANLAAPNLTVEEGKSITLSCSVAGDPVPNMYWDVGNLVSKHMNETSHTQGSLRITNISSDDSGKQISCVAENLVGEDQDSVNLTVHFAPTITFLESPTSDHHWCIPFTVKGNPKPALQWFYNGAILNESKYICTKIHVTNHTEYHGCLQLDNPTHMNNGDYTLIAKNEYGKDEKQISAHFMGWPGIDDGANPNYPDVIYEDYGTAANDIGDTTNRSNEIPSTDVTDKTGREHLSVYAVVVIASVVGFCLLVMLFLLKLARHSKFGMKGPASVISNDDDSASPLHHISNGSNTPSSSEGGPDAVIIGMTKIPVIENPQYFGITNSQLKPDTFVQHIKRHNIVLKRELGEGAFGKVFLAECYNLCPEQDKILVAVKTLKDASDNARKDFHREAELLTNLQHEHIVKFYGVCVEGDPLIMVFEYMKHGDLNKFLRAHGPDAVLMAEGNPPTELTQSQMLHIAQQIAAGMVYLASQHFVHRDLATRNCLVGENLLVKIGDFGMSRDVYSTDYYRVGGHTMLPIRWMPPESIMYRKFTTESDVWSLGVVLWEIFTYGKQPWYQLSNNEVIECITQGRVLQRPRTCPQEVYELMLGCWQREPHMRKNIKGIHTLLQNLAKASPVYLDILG
Protocol: The medium was changed once every 1-2 days. […] 500 ng/mL NGF or 200 ng/ml BDNF (if not added, marked as “-”) were added to stimulate the cells for 5 min. After cell lysis, total protein was extracted. Western blot assay was carried out with TrkA phosphorylated and non-phosphorylated (p-TrkA) antibodies, TrkB phosphorylated and non-phosphorylated (p-TrkB) antibodies, ERK phosphorylated and non-phosphorylated (p-ERK) antibodies, Akt phosphorylated and non-phosphorylated (p-Akt) antibodies, and GAPDH antibody.

TrkB [3] = molecular target: T1, TrkB; assay: Kinase Glo Plus kinase activity assay; type: biochemical
Protocol: (§2) 2) Activity of the rest 14 receptor tyrosine kinases was tested by using Kinase Glo Plus assay format, Progmag, and IC50 with regard to kinase activity was calculated based on the inhibition rate.

TrkA = TrkA (Homo sapiens, UniProt P04629); assay: Kinase Glo Plus kinase activity assay; type: biochemical
Sequence of TrkA (P04629 33-796, species assumed): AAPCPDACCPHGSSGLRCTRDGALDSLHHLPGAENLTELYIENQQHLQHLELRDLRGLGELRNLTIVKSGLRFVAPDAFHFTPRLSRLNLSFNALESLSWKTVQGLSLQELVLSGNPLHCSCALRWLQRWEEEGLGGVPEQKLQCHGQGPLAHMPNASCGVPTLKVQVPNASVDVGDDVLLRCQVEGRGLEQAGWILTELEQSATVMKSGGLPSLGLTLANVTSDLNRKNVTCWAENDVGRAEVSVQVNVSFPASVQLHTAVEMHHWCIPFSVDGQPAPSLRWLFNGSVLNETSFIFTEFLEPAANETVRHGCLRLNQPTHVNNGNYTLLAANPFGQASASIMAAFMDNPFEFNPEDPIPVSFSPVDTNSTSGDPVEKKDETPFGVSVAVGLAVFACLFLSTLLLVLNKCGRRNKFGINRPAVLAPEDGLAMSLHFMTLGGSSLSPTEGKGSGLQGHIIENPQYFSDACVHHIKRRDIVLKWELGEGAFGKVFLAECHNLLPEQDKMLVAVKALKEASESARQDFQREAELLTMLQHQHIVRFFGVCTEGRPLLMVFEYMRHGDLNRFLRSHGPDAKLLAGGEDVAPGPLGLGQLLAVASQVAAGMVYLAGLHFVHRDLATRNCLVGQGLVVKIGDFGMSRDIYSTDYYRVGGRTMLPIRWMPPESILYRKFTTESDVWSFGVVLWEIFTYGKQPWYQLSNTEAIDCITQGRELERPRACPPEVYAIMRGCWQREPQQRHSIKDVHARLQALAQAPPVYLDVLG
Protocol: as §2

FGFR = assay: Kinase Glo Plus kinase activity assay; type: biochemical
Protocol: as §2

PDGFR = assay: Kinase Glo Plus kinase activity assay; type: biochemical
Protocol: as §2

[4] = intraperitoneal high dose 36 mg/kg
[5] = intraperitoneal low dose 18 mg/kg

## Cc1ccccc1NS(=O)(=O)c1ccc2c(c1)/C(=C/c1nc3ccccc3[nH]1)C(=O)N2 [Indo 5, 3-(1H-benzimidazol-2-methylene)-5-(2-methylphenylaminosulfo)-2-indolone]
A549 cells
  IC50: 2.19 µM
MHCC97-H cells
  IC50: 1.03 µM
MHCC-97H cells; gavage (PO) 36 mg/kg
  Tumor inhibition rate: 62.2%
  Weight of tumor: 0.401 ± 0.530 g
  Average weight (X ± S), End: 21.01 ± 3.41
MHCC-97H cells; [4]
  Tumor inhibition rate: 62.4%
  Weight of tumor: 0.399 ± 0.486 g
  Average weight (X ± S), End: 21.18 ± 1.44
MHCC-97H cells; intraperitoneal high dose 36 mg/kg, 9 animals
  Disappearance of liver tumor at end of experiment: Liver cancer was gone in one animal
MHCC-97H cells; [5]
  Tumor inhibition rate: 55.5%
  Weight of tumor: 0.473 ± 0.497 g
  Average weight (X ± S), End: 20.61 ± 2.33
HepG2 cells
  IC50: 5.67 µM
SK-N-SH cells
  IC50: 1.19 µM
H460 cells
  IC50: 1.07 µM
A375 cells
  IC50: 1.87 µM
K562 cells
  IC50: 2.58 µM
HLE cells
  IC50: 5.23 µM
MKN-45 cells
  IC50: 1.55 µM
Ba/F3-Tpr-Met cells
  IC50: 4.79 µM
MCF-7 cells
  IC50: 1.28 µM
MHCC97-L cells
  IC50: 1.21 µM
[1]; 16 mg/kg gavage
  Tumor inhibition rate: 48%
[1]; 16 mg/kg intraperitoneal
  Tumor inhibition rate: 50%
TrkB [2]
  Phosphorylation of TrkB and downstream ERK and Akt: significantly inhibited
TrkB [3]
  IC50: 0.23 µM
TrkA
  IC50: 0.022 µM
FGFR
  IC50: > 10 µM
PDGFR
  IC50: > 10 µM
